Experimental data as given in the NIST ThermoML archive (doi:10.1016/j.fluid.2018.05.028).

Assay: xn = mol fraction of the nth substance listed
Settings: 101 kPa, Liquid; for speed of sound: Single path-length method; for mass density: Vibrating tube method; for viscosity: Concentric cylinders viscometry

CCCCCCCC/C=C\CCCCCCCC(=O)OCC [ethyl (Z)-9-octadeceneoate] + CCCO
Settings | mass density [kg/m3] | speed of sound [m/s] | viscosity [mPa·s]
318.15 K, x2 = 0 | 850.78 | – | –
318.15 K, x2 = 0.1 | 848.97 | – | –
318.15 K, x2 = 0.2 | 846.91 | – | –
318.15 K, x2 = 0.3 | 844.5 | – | –
318.15 K, x2 = 0.4 | 841.62 | – | –
318.15 K, x2 = 0.5 | 838.06 | 1272.1 | –
318.15 K, x2 = 0.6 | 833.53 | 1260.7 | –
318.15 K, x2 = 0.7 | 827.44 | 1245.5 | –
318.15 K, x2 = 0.8 | 818.94 | 1224.5 | –
318.15 K, x2 = 0.9 | 805.97 | 1191.9 | –
323.15 K, x2 = 0 | 847.17 | 1288.9 | 3.214
323.15 K, x2 = 0.1 | 845.32 | 1284.2 | 3.036
323.15 K, x2 = 0.2 | 843.22 | 1278.4 | 2.871
323.15 K, x2 = 0.3 | 840.76 | 1272 | 2.712
323.15 K, x2 = 0.4 | 837.83 | 1264.2 | 2.542
323.15 K, x2 = 0.5 | 834.21 | 1254.8 | 2.36
323.15 K, x2 = 0.6 | 829.63 | 1243.3 | 2.163
323.15 K, x2 = 0.7 | 823.48 | 1228.1 | 1.945
323.15 K, x2 = 0.8 | 814.91 | 1207.2 | 1.704
323.15 K, x2 = 0.9 | 801.87 | 1174.8 | 1.433
328.15 K, x2 = 0 | 843.58 | 1271.9 | 2.921
328.15 K, x2 = 0.1 | 841.67 | 1267.1 | 2.762
328.15 K, x2 = 0.2 | 839.52 | 1261.3 | 2.612
328.15 K, x2 = 0.3 | 837.01 | 1254.8 | 2.467
328.15 K, x2 = 0.4 | 834.04 | 1247.1 | 2.312
328.15 K, x2 = 0.5 | 830.37 | 1237.6 | 2.146
328.15 K, x2 = 0.6 | 825.72 | 1226.1 | 1.969
328.15 K, x2 = 0.7 | 819.5 | 1210.8 | 1.768
328.15 K, x2 = 0.8 | 810.86 | 1190 | 1.55
328.15 K, x2 = 0.9 | 797.72 | 1157.7 | 1.301
333.15 K, x2 = 0 | 839.98 | 1255.2 | 2.643
333.15 K, x2 = 0.1 | 838.03 | 1250.2 | 2.502
333.15 K, x2 = 0.2 | 835.83 | 1244.3 | 2.366
333.15 K, x2 = 0.3 | 833.26 | 1237.8 | 2.236
333.15 K, x2 = 0.4 | 830.24 | 1230 | 2.098
333.15 K, x2 = 0.5 | 826.5 | 1220.5 | 1.948
333.15 K, x2 = 0.6 | 821.79 | 1208.9 | 1.792
333.15 K, x2 = 0.7 | 815.49 | 1193.6 | 1.611
333.15 K, x2 = 0.8 | 806.76 | 1172.8 | 1.413
333.15 K, x2 = 0.9 | 793.52 | 1140.6 | 1.185
338.15 K, x2 = 0 | 836.39 | 1238.6 | 2.448
338.15 K, x2 = 0.1 | 834.39 | 1233.4 | 2.317
338.15 K, x2 = 0.2 | 832.14 | 1227.5 | 2.191
338.15 K, x2 = 0.3 | 829.51 | 1220.9 | 2.069
338.15 K, x2 = 0.4 | 826.42 | 1213 | 1.938
338.15 K, x2 = 0.5 | 822.62 | 1203.5 | 1.796
338.15 K, x2 = 0.6 | 817.84 | 1191.8 | 1.649
338.15 K, x2 = 0.7 | 811.45 | 1176.5 | 1.477
338.15 K, x2 = 0.8 | 802.63 | 1155.6 | 1.294
338.15 K, x2 = 0.9 | 789.27 | 1123.5 | 1.08
343.15 K, x2 = 0 | 832.81 | 1222.5 | 2.254
343.15 K, x2 = 0.1 | 830.76 | 1216.9 | 2.135
343.15 K, x2 = 0.2 | 828.45 | 1210.9 | 2.018
343.15 K, x2 = 0.3 | 825.76 | 1204.2 | 1.905
343.15 K, x2 = 0.4 | 822.6 | 1196.2 | 1.784
343.15 K, x2 = 0.5 | 818.73 | 1186.6 | 1.65
343.15 K, x2 = 0.6 | 813.87 | 1174.9 | 1.515
343.15 K, x2 = 0.7 | 807.39 | 1159.5 | 1.354
343.15 K, x2 = 0.8 | 798.46 | 1138.5 | 1.185
343.15 K, x2 = 0.9 | 784.97 | 1106.3 | 0.9873
